Results taken from patent publication US20020137929A1, “1 - (3-heterocyclylphenyl) isothiourea, -isourea, -guanidine and -amidine herbicidal agents” (Intellectual Property Department, BASF Aktiengesellschaft, priority 1998, published 2002).

Legend:
ORYSAT (Rice, Tebonnet) [1] = test: Postemergence herbicidal evaluation; type: in vivo, Oryza sativa, (L.) Tebonnet
Procedure, shortened: (§1)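 Herbicidal effect was judged by eye on a 0–9 scale covering stand, vigor, deformity, size and chlorosis, compared with controls, four to five weeks after seedlings about two weeks old were sprayed (40 psi, ~0.0156–0.500 kg/ha).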

ORYSAT (Rice, Tebonnet) [2] = test: Preemergence herbicidal evaluation; type: in vivo, Oryza sativa, (L.) Tebonnet; settings: rated 4-5 weeks after treatment
Procedure, shortened: (§2)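 Greenhouse preemergence test: seed-soil mix sown on ~1 inch soil; aqueous acetone spray at equivalent of ~0.0156–0.500 kg/ha; greenhouse-held and watered; scored 0–9 visually at 4–5 weeks.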

ZEAMX (Corn, Field) = test: Postemergence herbicidal evaluation; type: in vivo, Zea mays
Procedure, shortened: as §1

SETVI (Foxtail, Green) = test: Preemergence herbicidal evaluation; type: in vivo, Setaria viridis; settings: rated 4-5 weeks after treatment
Procedure, shortened: as §2

GALAP (Galium) = test: Postemergence herbicidal evaluation; type: in vivo, Galium aparine
Procedure, shortened: as §1

CYPSE (Flatsedge) [3] = test: Postemergence weed control under flooded paddy conditions; type: in vivo, Cyperus serotinus; settings: postemergence weeds, 3-4 weeks after treatment
Procedure, shortened: (§3)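 Containers holding 3–5 cm weeds and rice at 1.5–2.5 leaves are flooded to 1.5–3 cm above soil. Compound in 50/50 v/v aqueous/acetone is then added directly to the water, about 0.0313–0.500 kg/ha. Plants are kept in the greenhouse and rated 0–9 visually at 3–4 weeks.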

[4] = tested on: CHEAL (Lambsquarters, Common); test: Postemergence herbicidal evaluation; type: in vivo, Chenopodium album
Procedure, shortened: as §1

CYPIR (Rice Flatsedge) = test: Postemergence weed control under flooded paddy conditions; type: in vivo, Cyperus iria; settings: postemergence weeds, 3-4 weeks after treatment
Procedure, shortened: as §3

AMBEL (Ragweed, Common) = test: Preemergence herbicidal evaluation; type: in vivo, Ambrosia artemisifolia; settings: rated 4-5 weeks after treatment
Procedure, shortened: as §2

[5] = tested on: SAGPY (Arrowhead (Pygmaea)); test: Postemergence weed control under flooded paddy conditions; type: in vivo, Sagittaria pygmaea; settings: postemergence weeds, 3-4 weeks after treatment
Procedure, shortened: as §3

CYPSE (Flatsedge) [6] = test: Preemergence weed control under flooded paddy conditions; type: in vivo, Cyperus serotinus; settings: rated 3-4 weeks after treatment
Procedure, shortened: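 Using flooded silt loam (water 1.5 to 3 cm deep), seeds sown in the top 0.5 cm were exposed preemergence to compound pipetted into the flood at about 0.0313 to 0.500 kg/ha. Effects were scored 0-9 by eye three to four weeks later.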

CASOB (Sicklepod) = test: Postemergence herbicidal evaluation; type: in vivo, Cassia obtusifolia
Procedure, shortened: as §1

[7] = tested on: GLXMAW (Soybean, Williams); test: Preemergence herbicidal evaluation; type: in vivo, Glycine max, (L.) Merr. cv Williams; settings: rated 4-5 weeks after treatment
Procedure, shortened: as §2

SMILES: CCOC(=O)CN1CC(=O)N(CC(=O)OCC)C1=Nc1cc(-n2c(=O)cc(C(F)(F)F)n(C)c2=O)c(F)cc1Cl [Compound 34, 2-{{2-Chloro-5-[3,6-dihydro-3-methyl-2,6-dioxo-4-(trifluoromethyl)-1(2H)-pyrimidinyl]-4-fluoro-phenyl}imino}-4-oxo-1,3-imidazolidinediacetic acid, diethyl ester]
- Postemergence herbicidal rating ORYSAT (ORYSAT (Rice, Tebonnet) [1]; Rate 0.0158 kg/ha): 1.0
- Postemergence herbicidal rating ORYSAT (ORYSAT (Rice, Tebonnet) [1]; Rate 0.0315 kg/ha): 2.0
- Postemergence herbicidal rating ORYSAT (ORYSAT (Rice, Tebonnet) [1]; Rate 0.0630 kg/ha): 3.5
- Preemergence herbicidal rating ORYSAT (ORYSAT (Rice, Tebonnet) [2]; rate 0.0313 kg/ha): 0.0
- Preemergence herbicidal rating ORYSAT (ORYSAT (Rice, Tebonnet) [2]; rate 0.0625 kg/ha): 0.0
- Preemergence herbicidal rating ORYSAT (ORYSAT (Rice, Tebonnet) [2]; rate 0.1250 kg/ha): 2.0
- Preemergence herbicidal rating ORYSAT (ORYSAT (Rice, Tebonnet) [2]; rate 0.2500 kg/ha): 5.0
- Postemergence herbicidal rating ZEAMX (ZEAMX (Corn, Field); Rate 0.0158 kg/ha): 5.5
- Postemergence herbicidal rating ZEAMX (ZEAMX (Corn, Field); Rate 0.0315 kg/ha): 6.5
- Postemergence herbicidal rating ZEAMX (ZEAMX (Corn, Field); Rate 0.0630 kg/ha): 7.0
- Preemergence herbicidal rating SETVI (SETVI (Foxtail, Green); rate 0.0313 kg/ha): 3.0
- Preemergence herbicidal rating SETVI (SETVI (Foxtail, Green); rate 0.0625 kg/ha): 9.0
- Preemergence herbicidal rating SETVI (SETVI (Foxtail, Green); rate 0.1250 kg/ha): 9.0
- Preemergence herbicidal rating SETVI (SETVI (Foxtail, Green); rate 0.2500 kg/ha): 9.0
- Postemergence herbicidal rating GALAP (GALAP (Galium); Rate 0.0158 kg/ha): 4.0
- Postemergence herbicidal rating GALAP (GALAP (Galium); Rate 0.0315 kg/ha): 9.0
- Postemergence herbicidal rating GALAP (GALAP (Galium); Rate 0.0630 kg/ha): 6.0
- Herbicidal rating CYPSE (CYPSE (Flatsedge) [3]; rate 0.0313 kg/ha): 0.0
- Herbicidal rating CYPSE (CYPSE (Flatsedge) [3]; rate 0.0625 kg/ha): 0.0
- Herbicidal rating CYPSE (CYPSE (Flatsedge) [3]; rate 0.1250 kg/ha): 0.0
- Herbicidal rating CYPSE (CYPSE (Flatsedge) [3]; rate 0.2500 kg/ha): 0.0
- Postemergence herbicidal rating CHEAL ([4]; Rate 0.0158 kg/ha): 7.0
- Postemergence herbicidal rating CHEAL ([4]; Rate 0.0315 kg/ha): 9.0
- Postemergence herbicidal rating CHEAL ([4]; Rate 0.0630 kg/ha): 9.0
- Herbicidal rating CYPIR (CYPIR (Rice Flatsedge); rate 0.0313 kg/ha): 0.0
- Herbicidal rating CYPIR (CYPIR (Rice Flatsedge); rate 0.0625 kg/ha): 0.0
- Herbicidal rating CYPIR (CYPIR (Rice Flatsedge); rate 0.1250 kg/ha): 0.0
- Herbicidal rating CYPIR (CYPIR (Rice Flatsedge); rate 0.2500 kg/ha): 0.0
- Preemergence herbicidal rating AMBEL (AMBEL (Ragweed, Common); rate 0.0313 kg/ha): 0.0
- Preemergence herbicidal rating AMBEL (AMBEL (Ragweed, Common); rate 0.0625 kg/ha): 4.0
- Preemergence herbicidal rating AMBEL (AMBEL (Ragweed, Common); rate 0.1250 kg/ha): 4.0
- Preemergence herbicidal rating AMBEL (AMBEL (Ragweed, Common); rate 0.2500 kg/ha): 7.0
- Herbicidal rating SAGPY ([5]; rate 0.0313 kg/ha): 0.0
- Herbicidal rating SAGPY ([5]; rate 0.0625 kg/ha): 0.0
- Herbicidal rating SAGPY ([5]; rate 0.1250 kg/ha): 0.0
- Herbicidal rating SAGPY ([5]; rate 0.2500 kg/ha): 0.0
- Herbicidal rating CYPSE (CYPSE (Flatsedge) [6]; 0.0313 kg/ha): 0.0
- Herbicidal rating CYPSE (CYPSE (Flatsedge) [6]; 0.0625 kg/ha): 0.0
- Herbicidal rating CYPSE (CYPSE (Flatsedge) [6]; 0.1250 kg/ha): 0.0
- Herbicidal rating CYPSE (CYPSE (Flatsedge) [6]; 0.2500 kg/ha): 0.0
- Postemergence herbicidal rating CASOB (CASOB (Sicklepod); Rate 0.0158 kg/ha): 0.0
- Postemergence herbicidal rating CASOB (CASOB (Sicklepod); Rate 0.0315 kg/ha): 0.0
- Postemergence herbicidal rating CASOB (CASOB (Sicklepod); Rate 0.0630 kg/ha): 0.0
- Preemergence herbicidal rating GLXMAW ([7]; rate 0.0313 kg/ha): 0.0
- Preemergence herbicidal rating GLXMAW ([7]; rate 0.0625 kg/ha): 0.0
- Preemergence herbicidal rating GLXMAW ([7]; rate 0.1250 kg/ha): 0.0
- Preemergence herbicidal rating GLXMAW ([7]; rate 0.2500 kg/ha): 0.0

SMILES: CCOC(=O)CN1C(=O)C(Cc2ccccc2OC)SC1=Nc1cc(-n2c(=O)cc(C(F)(F)F)n(C)c2=O)c(F)cc1Cl (centres unmarked) [Compound 37, Ethyl 2-{{2-chloro-5-[3,6-dihydro-3-methyl-2,6-dioxo-4-(trifluoromethyl)-1(2H)-pyrimidinyl]-4-fluorophenyl}imino}-5-(o-methoxybenzyl)-4-oxo-3-thiazolidineacetate]
- Postemergence herbicidal rating ORYSAT (ORYSAT (Rice, Tebonnet) [1]; Rate 0.0158 kg/ha): 0.5
- Postemergence herbicidal rating ORYSAT (ORYSAT (Rice, Tebonnet) [1]; Rate 0.0315 kg/ha): 1.0
- Postemergence herbicidal rating ORYSAT (ORYSAT (Rice, Tebonnet) [1]; Rate 0.0630 kg/ha): 1.5
- Preemergence herbicidal rating ORYSAT (ORYSAT (Rice, Tebonnet) [2]; rate 0.1250 kg/ha): 0.0
- Preemergence herbicidal rating ORYSAT (ORYSAT (Rice, Tebonnet) [2]; rate 0.2500 kg/ha): 0.0
- Postemergence herbicidal rating ZEAMX (ZEAMX (Corn, Field); Rate 0.0158 kg/ha): 3.5
- Postemergence herbicidal rating ZEAMX (ZEAMX (Corn, Field); Rate 0.0315 kg/ha): 4.0
- Postemergence herbicidal rating ZEAMX (ZEAMX (Corn, Field); Rate 0.0630 kg/ha): 4.0
- Preemergence herbicidal rating SETVI (SETVI (Foxtail, Green); rate 0.1250 kg/ha): 0.0
- Preemergence herbicidal rating SETVI (SETVI (Foxtail, Green); rate 0.2500 kg/ha): 0.0
- Postemergence herbicidal rating GALAP (GALAP (Galium); Rate 0.0158 kg/ha): 1.0
- Postemergence herbicidal rating GALAP (GALAP (Galium); Rate 0.0315 kg/ha): 3.0
- Postemergence herbicidal rating GALAP (GALAP (Galium); Rate 0.0630 kg/ha): 4.0
- Herbicidal rating CYPSE (CYPSE (Flatsedge) [3]; rate 0.0313 kg/ha): 0.0
- Herbicidal rating CYPSE (CYPSE (Flatsedge) [3]; rate 0.0625 kg/ha): 0.0
- Herbicidal rating CYPSE (CYPSE (Flatsedge) [3]; rate 0.1250 kg/ha): 0.0
- Herbicidal rating CYPSE (CYPSE (Flatsedge) [3]; rate 0.2500 kg/ha): 0.0
- Postemergence herbicidal rating CHEAL ([4]; Rate 0.0158 kg/ha): 3.0
- Postemergence herbicidal rating CHEAL ([4]; Rate 0.0315 kg/ha): 3.0
- Postemergence herbicidal rating CHEAL ([4]; Rate 0.0630 kg/ha): 3.0
- Herbicidal rating CYPIR (CYPIR (Rice Flatsedge); rate 0.0313 kg/ha): 0.0
- Herbicidal rating CYPIR (CYPIR (Rice Flatsedge); rate 0.0625 kg/ha): 0.0
- Herbicidal rating CYPIR (CYPIR (Rice Flatsedge); rate 0.1250 kg/ha): 0.0
- Herbicidal rating CYPIR (CYPIR (Rice Flatsedge); rate 0.2500 kg/ha): 0.0
- Preemergence herbicidal rating AMBEL (AMBEL (Ragweed, Common); rate 0.1250 kg/ha): 0.0
- Preemergence herbicidal rating AMBEL (AMBEL (Ragweed, Common); rate 0.2500 kg/ha): 0.0
- Herbicidal rating SAGPY ([5]; rate 0.0313 kg/ha): 0.0
- Herbicidal rating SAGPY ([5]; rate 0.0625 kg/ha): 0.0
- Herbicidal rating SAGPY ([5]; rate 0.1250 kg/ha): 0.0
- Herbicidal rating SAGPY ([5]; rate 0.2500 kg/ha): 3.0
- Herbicidal rating CYPSE (CYPSE (Flatsedge) [6]; 0.0313 kg/ha): 0.0
- Herbicidal rating CYPSE (CYPSE (Flatsedge) [6]; 0.0625 kg/ha): 0.0
- Herbicidal rating CYPSE (CYPSE (Flatsedge) [6]; 0.1250 kg/ha): 0.0
- Herbicidal rating CYPSE (CYPSE (Flatsedge) [6]; 0.2500 kg/ha): 0.0
- Postemergence herbicidal rating CASOB (CASOB (Sicklepod); Rate 0.0158 kg/ha): 0.0
- Postemergence herbicidal rating CASOB (CASOB (Sicklepod); Rate 0.0315 kg/ha): 0.0
- Postemergence herbicidal rating CASOB (CASOB (Sicklepod); Rate 0.0630 kg/ha): 0.0
- Preemergence herbicidal rating GLXMAW ([7]; rate 0.1250 kg/ha): 0.0
- Preemergence herbicidal rating GLXMAW ([7]; rate 0.2500 kg/ha): 0.0
